System: HBV
Test: HBV-DNA antiviral assay using HepG2.117 cells
Format: cell-based, genotype D HBV
Conditions: intracellular HBV DNA by qPCR, 3 days incubation
Description: The following assay procedure describes the HBV antiviral assay, using HepG2.117 cells, which carry a stably integrated genotype D HBV genome under the control of a Tet-off promoter, and intracellular HBV DNA quantification as endpoint. Cell viability is assessed in parallel by measuring the intracellular ATP content using ATPlite (Perkin Elmer).
On day 0, HepG2.117 cells (which are maintained in routine cell culture with doxycycline present in the medium at a final concentration of 1 μg/mL) were seeded in 96-well plates (white with clear bottom) at a density of 2.0×10^4 cells/well (0.1 mL/well) in medium without doxycycline to induce pgRNA transcription and subsequent formation of HBV particles. The cells were incubated at 37° C. and 5% CO2.
On day 1, medium was removed from each well, the test articles were diluted in culture medium without doxcycyline and 100 μL was added to cell culture wells (9 concentrations, 4-fold dilution). For each plate, 6 untreated (merely DMSO) wells were included. The final concentration of DMSO in the culture medium was 2%. Each plate was prepared in duplicate (one for HBV DNA extraction, one for ATPlite measurement). The cells were incubated at 37° C. and 5% CO2 for 3 days.
On day 4, cell viability was assessed using ATPlite and cell lysates were prepared for HBV DNA extraction and subsequent quantification by qPCR.
Medium was removed from each well and 100 μL of 0.33% NP-40 in H2O was added to each well. Plates were sealed, incubated at 4° C. for 5 mins, vortexed extensively and centrifuged briefly. Next, 35 μL of lysate was added to 65 μL QuickExtract DNA Extraction Solution (Epicentre) in a PCR plate for each well. PCR plate was incubated at 65° C. for 6 mins, 98° C. for 2 mins and finally cooled to 4° C. HBV DNA was then quantified by qPCR with HBV-specific primers and probes as specified in Table 1 using the Bio-Rad SSOAdvanced Universal Probes Supermix on a CFX96 machine (Bio-Rad). The PCR cycle program consisted of 95° C. for 3 mins, followed by 40 cycles at 95° C. for 10 sec and 60° C. for 30 sec.
A DNA standard was prepared by dilution of an IDT gBlock corresponding to the amplicon with concentrations ranging from 10^2 to 10^8 copies/input (i.e. per 4 μL) and used to generate a standard curve by plotting Cq values vs. HBV DNA standard concentration. The quantity of HBV DNA in each sample was determined by interpolating from the standard curve.
Cell viability was calculated as follows: % Cell viability=(luminescence value of test sample)/(average luminescence value of 2% DMSO control)×100%. HBV DNA inhibition was calculated as follows: 100−(HBV DNA copy number of test sample)/(average HBV DNA copy number of 2% DMSO control)×100%. No normalization to entecavir was required due to the excellent dynamic window of this assay. The CC50, EC50 and EC90 values were determined by dose-response curves fitted by GraphPad Prism using “log (agonist) vs. response—Variable slope”.

| Compound | EC50 | EC50 (Hepatitis B virus, 72 h) |
| --- | --- | --- |
| CNC(=O)c1ccc(-n2c(=O)c3c(n4ncc(Cc5ccccc5)c24)CN(C(=O)c2ccc(Br)c(Cl)c2)C(C)C3)cc1 (single isomer, unassigned) [Compound 71, 4-[(11R*)-5-benzyl-12-(4-bromo-3-chlorobenzoyl)-11-methyl-8-oxo-2,3,7,12-tetraazatricyclo[7.4.0.0^[2,6]]trideca-1(9),3,5-trien-7-yl]-N-methylbenzamide] | ≤ 0.1 µM |  |
| CNC(=O)c1ccc(-n2c(=O)c3c(n4ncc(Cc5ccccc5)c24)CN(C(=O)c2ccc(Br)c(Cl)c2)C(C)C3)cc1 (single isomer, unassigned) [Compound 72, 4-[(11S*)-5-benzyl-12-(4-bromo-3-chlorobenzoyl)-11-methyl-8-oxo-2,3,7,12-tetraazatricyclo[7.4.0.0^[2,6]]trideca-1(9),3,5-trien-7-yl]-N-methylbenzamide] | ≤ 0.1 µM |  |
| CNC(=O)c1ccc(-n2c(=O)c3c(n4ncc([C@H](C)c5ccccc5)c24)CN(C(=O)c2ccc(Br)c(C#N)c2)CC3)cc1 (stereo in doubt) [Compound 57, 4-[12-(4-bromo-3-cyano-benzoyl)-8-oxo-5-[rac-(1R)-1-phenylethyl]-2,3,7,12-tetrazatricyclo [7.4.0.0 2,6]trideca-1(9),3,5-trien-7-yl]-N-methyl-benzamide] |  | ≤ 0.1 µM |
| CNC(=O)c1ccc(-n2c(=O)c3c(n4ncc([C@@H](C)c5ccccc5)c24)CN(C(=O)c2ccc(Br)c(C#N)c2)CC3)cc1 (stereo in doubt) [Compound 58, 4-[12-(4-bromo-3-cyano-benzoyl)-8-oxo-5-[rac-(1S)-1-phenylethyl]-2,3,7,12-tetrazatricyclo [7.4.0.0 2,6]trideca-1(9),3,5-trien-7-yl]-N-methyl-benzamide] |  | ≤ 0.1 µM |
| CNC(=O)c1ccc(-n2c(=O)c3c(n4ncc(N[C@@H](C)c5ccccc5)c24)CN(C(=O)c2ccc(Br)c(Cl)c2)CC3)cc1 (stereo in doubt) [Compound 74, 4-[12-(4-bromo-3-chloro-benzoyl)-8-oxo-5-[[rac-(1S)-1-phenylethyl]amino]-2,3,7,12-tetrazatricyclo [7.4.0.0 2,6]trideca-1(9),3,5-trien-7-yl]-N-methyl-benzamide] |  | ≤ 0.1 µM |
| CNC(=O)c1ccc(-n2c(=O)c3c(n4ncc(N[C@H](C)c5ccccc5)c24)CN(C(=O)c2ccc(Br)c(Cl)c2)CC3)cc1 (stereo in doubt) [Compound 79, 4-[12-(4-bromo-3-chloro-benzoyl)-8-oxo-5-[[rac-(1R)-1-phenylethyl]amino]-2,3,7,12-tetrazatricyclo [7.4.0.0 2,6]trideca-1(9),3,5-trien-7-yl]-N-methyl-benzamide] |  | 0.1 to 0.5 µM |
| CNC(=O)c1ccc(-n2c(=O)c3c(n4ncc(Cc5ccccc5)c24)CN(C(=O)c2ccc(Br)c(C#N)c2)[C@@H](C)C3)cc1 (stereo in doubt) [Compound 80, N-methyl-4-[rac-(11S)-5-benzyl-12-(4-bromo-3-cyano-benzoyl)-11-methyl-8-oxo-2,3,7,12-tetrazatricyclo [7.4.0.0 2,6]trideca-1(9),3,5-trien-7-yl] benzamide] |  | 0.1 to 0.5 µM |
| CNC(=O)c1ccc(-n2c(=O)c3c(n4ncc(Cc5ccccc5)c24)CN(C(=O)c2ccc(Br)c(C#N)c2)[C@H](C)C3)cc1 (stereo in doubt) [Compound 81, N-methyl-4-[rac-(11R)-5-benzyl-12-(4-bromo-3-cyano-benzoyl)-11-methyl-8-oxo-2,3,7,12-tetrazatricyclo [7.4.0.0 2,6]trideca-1(9),3,5-trien-7-yl] benzamide] |  | ≤ 0.1 µM |
| Cn1c(=O)c2c(n3nccc13)CN(C(=O)Nc1ccc(F)c(Cl)c1)CC2 [Compound 1, N-(3-chloro-4-fluorophenyl)-4-methyl-5-oxo-5,6,7,9-tetrahydropyrazolo[1,5-a]pyrido[4,3-e]pyrimidine-8(4H)-carboxamide] |  | 0.5 to 5 µM |
| O=C(Nc1ccc(F)c(Cl)c1)N1CCc2c(n3nccc3n(Cc3ccccc3)c2=O)C1 [Compound 2, 4-benzyl-N-(3-chloro-4-fluorophenyl)-5-oxo-5,6,7,9-tetrahydropyrazolo[1,5-a]pyrido[4,3-e]pyrimidine-8(4H)-carboxamide] |  | 0.5 to 5 µM |
